The values that follow come from US11311531B2, “Method for producing benzazoloquinolium (BQs) salts and using the biological activity of the composition” (Sistema Universitario Ana G. Mendez, Inc., priority 2014, dated 2022).

Bounds are passed on as bounds.

For series [1], the system named is human colorectal adenocarcinoma COLO-205. Put plainly: DNA fragmentation, NC3000 DAPI. The series is classed as cell-based. The conditions noted are these: colo 205, versus negative control and camptothecin. As for the experimental part: (§1) Cell culture conditions: The cell cultures utilized in this study were human colorectal adenocarcinoma COLO-205 (ATCC CCL-222). Cultures were maintained in RPMI 1640 media (ATCC, Manassas Va.) supplemented with 10% fetal bovine serum (ATCC) maintained at 37° C. with 95% air and 5% CO2. Apoptosis analysis by Annexin V expression: The annexin V assay allows detection of the migration phosphatidylserine (PS) to the exterior surface of cells, a characteristic event in apoptotic cells. Approximately 2.5×10^6 cells were treated for 24 hours with 10 μM and 20 μM doses of the BQ test compounds. Controls used in all assays were camptothecin 10 and vehicle (DMSO). […] Samples were analyzed by using the Nucleo Counter NC3000 system annexin V assay (Chemometec, Allerød, Denmark). This system allows for measurement and quantification of stained cells. […] This enzyme mediated event can be quantified by measuring DNA fragments. […] After treatment with BQ's at the test doses, cells were fixed with 70% ethanol for at least 24 hours, stained with 1 μg/ml DAPI, and analyzed using the NC3000 instrument measuring DAPI intensity. […] Approximately 1×10^6 cells were stained with 5,5′,6,6′-Tetrachloro-1,1′,3,3′-tetraethyl-imidacarbocyanine iodide (JC-1) and 1 μg/ml DAPI and analyzed in the NC3000. depolarized cells will fluoresce green while cells with stable mitochondrial membrane potential will fluoresce orange. […]

Series [2] shares this test system. The series can be described thus: Apoptosis analysis by Annexin V expression. In kind it is cell-based. The conditions noted are these: 24 hours. As for the experimental part:
Cell culture conditions: The cell cultures utilized in this study were human colorectal adenocarcinoma COLO-205 (ATCC CCL-222). Cultures were maintained in RPMI 1640 media (ATCC, Manassas Va.) supplemented with 10% fetal bovine serum (ATCC) maintained at 37° C. with 95% air and 5% CO2. Apoptosis analysis by Annexin V expression: The annexin V assay allows detection of the migration phosphatidylserine (PS) to the exterior surface of cells, a characteristic event in apoptotic cells. Approximately 2.5×10^6 cells were treated for 24 hours with 10 μM and 20 μM doses of the BQ test compounds. Controls used in all assays were camptothecin 10 and vehicle (DMSO). After a 24-hour exposure, cells were stained with the annexin V conjugate, and propidium iodide (Biotium, Hayward, Calif.). Samples were analyzed by using the Nucleo Counter NC3000 system annexin V assay (Chemometec, Allerød, Denmark). This system allows for measurement and quantification of stained cells. A one-way ANOVA with post hoc Tukey test was also performed for all assays using GraphPad Prism version 6. DNA Fragmentation: DNA Fragmentation can be used as a marker for detection of cells undergoing apoptosis. This enzyme mediated event can be quantified by measuring DNA fragments. The Nucleo Counter NC3000 assay is based on removal of small DNA fragments and retention of 4′,6-diamidino-2-phenylindole (DAPI) stained higher weight fragments. After treatment with BQ's at the test doses, cells were fixed with 70% ethanol for at least 24 hours, stained with 1 μg/ml DAPI, and analyzed using the NC3000 instrument measuring DAPI intensity. Mitochondrial Membrane Permeability: Mitochondria permeability is central in the cell death process. The Nucleocounter NC3000 preset mitochondrial potential assay was used. Approximately 1×10^6 cells were stained with 5,5′,6,6′-Tetrachloro-1,1′,3,3′-tetraethyl-imidacarbocyanine iodide (JC-1) and 1 μg/ml DAPI and analyzed in the NC3000. depolarized cells will fluoresce green while cells with stable mitochondrial membrane potential will fluoresce orange. The change in ratio of green to orange fluorescence will determine the permeability state of the samples.

For series [3] the test system is unchanged. Put plainly: Mitochondrial membrane permeability, JC-1 NC3000. In kind it is cell-based. The settings on record: colo 205, versus negative control and camptothecin. How it is done:
as §1

Series [4] concerns NCI 60 human tumor cell line panel. Put plainly: NCI 60 human tumor cell line screen, one dose, whole panel. In kind it is cell-based. The conditions noted are these: for activity in the NCI 60 screen (growth inhibition, in words): one dose; for growth inhibition: 10 μM. As for the experimental part: (§2) The National Cancer Institute (NCI) 60 human tumor cell line screen uses genetically characterized cells to determine biological activity against various cell lines. The panel is comprised of various cell types representing some of the most important cancer types. Two of the benzazolo[3,2-a]quinolinium salts i.e. NBQ 48 (NSC: D-763303) and ABQ 48 (NSC: D-763307) were tested at a dose of 10 μM on the entire cell line panel. The complete details of the NCI-60 cell line screening are describe in document Feasibility of drug screening with panels of human tumor cell lines using a microculture tetrazolium assay. Cancer research, 1988, 48(3), 589-601 (here included by reference).
(§3) Briefly, the cancer cells are grown in RPM1 1640 medium for 24 hours. Experimental compounds dissolved in DMSO are incubated with cells at 10 μM. After incubation the cells are stained with sulforhodamine B and the absorbance is read on a plate reader. The data reported as a mean graph are shown in the drawings FIG. 21 through FIGS. 24A-24I. For five dose study the test compound is incubated with cells at five different concentrations with 10-fold dilutions, from 10^−4 M, 10^−5, 10^−6, 10^−7, and 10^−8 M. Rest of the procedure is similar to the one dose experiment. After measurement, the (GI50) is calculated from time zero, control growth, and the five concentration absorbance. Inhibitory concentrations (LC50) represent the average of two experiments.
(§4) All the one-dose data of these compounds is reported as a mean of the growth percent of BQ exposed cells. One dose assay results are relative to control and number of cells at time 0. Growth inhibition values are placed from 0 to 100 whereas lethality is reflected in values less than 0. A sample obtained value of 100 means that no growth was inhibited. If the value is for example 30 then growth inhibition is 70%. If a sample has a value of −30 then this means 30% lethality, conversely if the value would be −100 the all cells in the sample are dead.

Series [5] concerns TK-6 cells. The series can be described thus: DNA fragmentation, NC3000 DAPI assay. The series is classed as cell-based, human. The conditions noted are these: TK6, 48 hours. As for the experimental part:
(§5) Methods—Cultures were exposed for 48 hours to ABQ 48 at doses from 10 μM to 180 μM. Cells were harvested counted and assessed for cell viability implementing the Trypan Blue exclusion method using the Countess™ automated cell counter (Invitrogen Corp. Carlsbad, Calif.). The percentage of viable cells was calculated and graphed using Excel (Microsoft Corp. Redmond, Wash.). The mitochondrial membrane permeability assays was determined applying the Nucleocounter 3000, JC-1 assay. DNA fragmentation and cell cycle alterations were analyzed also through the Nucleocounter 3000 instrument.
(§6) Bioactivity 3. DNA fragmentation—Fragmentation of DNA as a marker for apoptosis is a commonly used assay. Analysis was performed applying the Nucleo counter NC3000 DNA fragmentation assay. Determination of the degree of DNA fragmentation is based on the retention of DAPI, a nucleic acid staining reagent. As described previously TK-6, and Toledo cells were kept in culture at the specified conditions. Cells where then treated with the tested compounds as previously described for 48 hours, after which nutritional media removed, cells harvested, fixed with 70% ethanol, incubated and stained with 1 μg/ml DAPI according to manufacturer's specifications for image analysis measuring DAPI intensity.
(§7) DNA fragmentation—Analysis was performed applying the Nucleo counter NC3000 DNA fragmentation assay. Determination of the degree of DNA fragmentation is based on the retention of DAPI, a nucleic acid staining reagent. Prior to treatment with the tested compounds A431 and TK-6 cells were kept in culture at the specified conditions. Cells where then treated with the tested compounds at the respective IC50 concentrations ([…] DNA fragmentation protocol was as recommended by Nucleo counter NC3000 manufacturer.

Series [6] relates to Toledo cells. Put plainly: DNA fragmentation, NC3000 DAPI assay. The series is classed as cell-based, human. The settings on record: 48 hours. As for the experimental part: as §5, §6
Series [7] concerns Toledo cells. The series can be described thus: Cell cycle disruption, DAPI image analysis. The series is classed as cell-based, human. The conditions noted are these: 48 hours. As for the experimental part:
as §5
Bioactivity 4. Cell Cycle disruption—Cell cycle effects are of great importance to the characterization of any novel therapeutic agent. This most fundamental cellular process is integral in determining the effects of any drug upon the target cells. After treatment with the tested BQs at previously described conditions, cells were harvested, and stained with 10 μg/ml DAPI (a DNA marker) according to manufacturer's specifications and analyzed with the instrument using image analysis to measure the DAPI intensity as an indicator of the DNA density.

The test system of series [8] is Toledo. The series can be described thus: Mitochondrial membrane permeability, JC-1 assay. The series is classed as cell-based, human. How it is done:
as §5

For series [9], the system named is TK6. Put plainly: Mitochondrial membrane permeability, JC-1 assay. The series is classed as cell-based, human. How it is done:
as §5

Series [10] concerns A431. Put plainly: Mitochondrial membrane permeability, JC-1 assay. The series is classed as cell-based, human. How it is done:
as §5

Series [11] concerns TK-6 lymphoblasts cells. The series can be described thus: Cell viability, Trypan Blue exclusion. The series is classed as cell-based, human. How it is done:
(§8) Cell cultures—The three cell lines A431 epitheloid carcinoma cells (ATCC CRL-1555), the human TK-6 lymphoblasts cells (ATCC CRL-8015) and Toledo lymphoma (CRL-2631 respectively) were obtained from American Type Culture Collection (ATCC, Manassas, Va.) and cultured on RPMI 1640 (ATCC) cell culture media with 10% fetal bovine serum (ATCC). Cell cultures were maintained in a cell culture incubator at 37° C. and 5% CO2.
as §5

Series [12] relates to A431 epitheloid carcinoma cells. Put plainly: Cell viability, Trypan Blue exclusion. In kind it is cell-based, human. As for the experimental part:
as §8, §5

Series [13] relates to Toledo lymphoma cells. Put plainly: Cell viability, Trypan Blue exclusion. In kind it is cell-based, human. How it is done:
as §8, §5

For series [14], the system named is A431 cells. The series can be described thus: DNA fragmentation, NC3000 DAPI assay. The series is classed as cell-based, human. The settings on record: A431, ABQ 48 exposure. As for the experimental part:
as §5, §7

For series [15], the system named is TK6. Put plainly: Cell cycle disruption, DAPI image analysis. In kind it is cell-based, human. The settings on record: Tk6, ABQ 48 exposure. As for the experimental part: as §5
(§9) Cell Cycle disruption—Cell cycle effects are of great importance to the characterization of any novel therapeutic agent. After treatment with the tested BQS 95 and BQS 38 at previously described conditions, cells were harvested, and stained with 10 μg/ml DAPI (a DNA marker) according to manufacturer's specifications and analyzed with the instrument using image analysis to measure the DAPI intensity as an indicator of the DNA density.

Series [16] deals with A431. Put plainly: Cell cycle disruption, DAPI image analysis. The series is classed as cell-based, human. The settings on record: A431, ABQ 48 exposure. As for the experimental part: as §5, §9
Series [17] concerns KM12. Put plainly: NCI 60 human tumor cell line screen, one dose. The series is classed as cell-based. The settings on record: 10 μM. As for the experimental part: as §2, §3, §4
Series [18] has as its system SK-MEL-5. Put plainly: NCI 60 human tumor cell line screen, one dose. The settings on record: 10 μM. In kind it is cell-based. As for the experimental part:
as §2, §3, §4

For series [19], the system named is U251. The series can be described thus: NCI 60 human tumor cell line screen, one dose. The conditions noted are these: 10 μM. In kind it is cell-based. How it is done:
as §2, §3, §4

Series [20] can be described thus: Cytotoxicity activity of CBQs. In kind it is cell-based. The conditions noted are these: human, A-431 cells; A-431 cell line.

Take “7-(2,3,4-trimethoxybenzyl)-3-nitrobenzimidazo[3,2-a]quinolinium chloride [NBQ 234 TOM]”: the DNA fragmentation induction entry in [1] was “higher DNA fragmentation in comparison with the negative control (water as vehicle) and higher than the positive control camptothecin”. Moreover, the apoptotic cells in series [2] (10 μM) worked out at 83.7%; in [2] (20 μM), 87.5%. For the same molecule, the mitochondrial membrane permeabilization result in series [3] is recorded as “higher mitochondrial permeabilization in comparison with the negative control (water as vehicle) but lower than cells treated with the positive control camptothecin”.
For the molecule “7-benzyl-3-nitrobenzimidazolo[3,2-a]quinolinium chloride [NBQ-48]”, the “activity in the NCI 60 screen (growth inhibition, in words)” value in [4] was “less effective”. The DNA fragmentation result in series [5] and in series [6] was “higher than the negative control” in each case.
Regarding `Nc1ccc2c(ccc3n2c2ccccc2[n+]3Cc2ccccc2)c1.[Cl-]` [ABQ-48, 7-Benzyl-3-aminobenzimidazo[3,2-a]quinolinium chloride], the cell cycle alteration entry in series [7] (listed as ABQ 48) is “observed”; in series [7] (listed as ABQ48), “arrested at the S/G2 stage”; in [15] it was “observed”; in series [16], “observed”. Further, the mitochondrial membrane permeability entry in [8], in series [9] and in [10] was “observed” in each case. The IC90 (as a rule, the concentration at which the effect reaches the 90% level) is 135 µM in [11] (Tk6), 90 µM in [12] (A431) and 100 µM in [13]. Moreover, the 50% inhibitory concentration (IC50) (commonly the point on the concentration scale where inhibition reaches its midpoint) in [11] (Tk6, 48 hours exposure) came out at 8.6 µM; in series [12] (A431, 48 hours exposure), 23 µM; in [13] (48 hours exposure), 50 µM. The growth inhibition entry is “greater than 60%” in series [4] (in no less than 8 cell lines); greater than 70% in series [4] (in several cell lines); greater than 90% in series [17]; greater than 90% in [18]; greater than 90% in [19]. Further, the “activity in the NCI 60 screen (growth inhibition, in words)” value in series [4] is on record as “highly effective”. Besides, the DNA fragmentation result in [5] (listed as ABQ 48) is reported as “observed”; in series [5] (listed as ABQ48) it was “higher than the negative control”; in series [6] (listed as ABQ 48) it was “observed”; in series [6] (listed as ABQ48) it was “higher than the negative control”; in [14], “observed”.
`Cc1ccc2sc3ccc4c(Cl)cccc4[n+]3c2c1` [CBQ-108, 4-Chloro-10-methylbenzothiazolo[3,2-a]quinolinium chloride] displayed an IC50 in series [20] of 3.7 µM.
For “7-(2,3,4-Trimethoxybenzyl)-3-aminostyrylbenzimidazo[3,2-a]quinolinium chloride [ABQ 234 TOM]”, the DNA fragmentation induction entry in series [1] is given as “did not present evidence of DNA fragmentation”. For the same molecule, the apoptotic cells in [2] (10 μM) and in series [2] (20 μM) was 91% throughout. The mitochondrial membrane permeabilization result in series [3] was “higher mitochondrial permeabilization in comparison with the negative control (water as vehicle) and similar to the positive control camptothecin”.
